This note sets out measurements from patent US9206195B2, “Dihydrothienopyrimidines” (Boehringer Ingelheim International GmbH, priority 2011, dated 2015).

Some results are limits rather than exact numbers.

This experiment relates to Aβ42 production (γ-secretase) in H4 neuroglioma cells stably expressing the human APP695 isoform. The experiment in a line: Screening for preferential inhibition of Aβ42 vs. total Aβ production in H4 neuroglioma cells (Meso Scale Discovery electrochemiluminescence assays on supernatant). It is filed as cell-based. The conditions noted are these: for IC50: 22 hours incubation, Aβ42 in supernatant, read-out: Aβ42 cellular IC50; for Ratio Aβ(total)/Aβ42 (Aβ total IC50/Aβ42 IC50): higher ratio = more specific inhibition of Aβ42 over Aβ total. As for the experimental part:
Cells were plated out to near confluency. The compounds to be tested were received as 10 mM stocks in 100% DMSO. A dilution series was initially generated in 100% DMSO and then diluted 200-fold in cell culture media such that the tested concentration range was 30 μM to 0.1 nM and the final DMSO concentration was 0.5%. The diluted compounds were incubated with the cells for 22 hours in an incubator at 37° C. and 5% CO2. Aβ42 as well as Aβ total levels were then measured post-incubation from the supernatant of the cells. Aβ42 levels were determined using a specific electrochemiluminescence assay provided by Meso Scale Discovery (Catalog #L21CA-1) according to the manufacturer's protocol. Aβ total levels were likewise determined using a specific electrochemiluminescence assay provided by Meso Scale Discovery (Catalog #L21ZA-1) according to the manufacturer's protocol.
In order to absolutely define the described compounds as modulators of γ-Secretase as opposed to simply inhibitors of γ-Secretase, measurements of not only Aβ42 but also Aβ total are performed.

The IC50 is the concentration that inhibits the measured activity by half. Regarding `COc1cc(Nc2nc3c(c(N4CCCCC4)n2)[S+]([O-])C2(CCCCC2)C3)ccc1-n1cnc(C)c1` (centres unmarked) [Example 14], the IC50 amounted to 120 nM and the “Ratio Aβ(total)/Aβ42 (Aβ total IC50/Aβ42 IC50)” value (from here on “Ratio Aβ(total)/Aβ42”) is 100.
For `COc1cc(Nc2nc3c(c(NC4CCCC4)n2)[S+]([O-])C2(CCC2)C3)ccc1-n1cnc(C)c1` (centres unmarked) [Example 5] the same measures were 220 nM and 54.
On the same counts, the results for `COc1cc(Nc2nc3c(c(N4CCCCC4)n2)[S+]([O-])C2(CCOCC2)C3)ccc1-n1cnc(C)c1` (centres unmarked) [Example 17] are 530 nM and 51.
For `Cc1cn(-c2ccc(Nc3nc4c(c(N(C)C)n3)[S+]([O-])C3(CCC3)C4)cc2C#N)cn1` (centres unmarked) [Example 23] the same measures were 1190 nM and 25.
Consider `COc1cc(Nc2nc(C)c3c(n2)CC2(CCC2)[S+]3[O-])ccc1-n1cnc(C)c1` (centres unmarked) [Example 11], for which the IC50 turned out to be 1550 nM and the “Ratio Aβ(total)/Aβ42” value came out at 19.
On the same counts, the results for `COc1cc(Nc2nc3c(c(N4CCOCC4)n2)[S+]([O-])C2(CCC2)C3)ccc1-n1cnc(C)c1` (centres unmarked) [Example 8] are 3250 nM and over 9.
For `COc1cc(Nc2nc3c(c(N4CCCCC4)n2)SC2(CCCCC2)C3)ccc1-n1cnc(C)c1` [Example 13] the same measures were 130 nM and 57.
On to `COc1cc(Nc2nc3c(c(N(C)C)n2)SC2(CCC2)C3)ccc1-c1cnc(C)o1` [Example 7], for which the IC50 turned out to be 100 nM and the “Ratio Aβ(total)/Aβ42” value is 242.
Turning to `COc1cc(Nc2nc3c(c(N(C)C)n2)[S+]([O-])C2(CCCCC2)C3)ccc1-n1cnc(C)c1` (centres unmarked) [Example 15], the IC50 is 300 nM and the “Ratio Aβ(total)/Aβ42” value amounted to 61.
On the same counts, the results for `COc1cc(Nc2nc3c(c(C(C)C)n2)[S+]([O-])C2(CCCCC2)C3)ccc1-n1cnc(C)c1` (centres unmarked) [Example 21] are 19700 nM and 1.
For `COc1cc(Nc2nc(C)c3c(n2)CC2(CCC2)S3)ccc1-n1cnc(C)c1` [Example 10] the same measures were 130 nM and 110.
For `COc1cc(Nc2nc3c(c(N4CCOCC4)n2)SC2(CCC2)C3)ccc1-n1cnc(C)c1` [Example 6] the same measures were 140 nM and 55.
For `Cc1cc(-c2ccc(Nc3nc4c(c(N(C)C)n3)SC3(CCC3)C4)cc2)ccn1` [Example 20], the IC50 stood at 1380 nM and the “Ratio Aβ(total)/Aβ42” value worked out at 8.
On the same counts, the results for `COc1cc(Nc2nc3c(c(N(C)C)n2)SC2(CCCCC2)C3)ccc1-n1cnc(C)c1` [Example 12] are 120 nM and 61.
On the same counts, the results for `Cc1cc(-c2ccc(Nc3nc4c(c(N(C)C)n3)[S+]([O-])C3(CCC3)C4)cc2)ccn1` (centres unmarked) [Example 22] are 770 nM and 12.
As to `COc1cc(Nc2nc3c(c(C(C)C)n2)SC2(CCCCC2)C3)ccc1-n1cnc(C)c1` [Example 18], the IC50 came to 7590 nM and the “Ratio Aβ(total)/Aβ42” value turned out to be 2.
On the same counts, the results for `COc1cc(Nc2nc3c(c(N(C)C)n2)SC2(CCC2)C3)ccc1-n1cnc(C)c1` [Example 4] are 130 nM and 50.
Regarding `COc1cc(Nc2nc3c(c(NC4CCCC4)n2)SC2(CCC2)C3)ccc1-n1cnc(C)c1` [Example 1], the IC50 amounted to 190 nM and the “Ratio Aβ(total)/Aβ42” value is on record as 37.
For `Cc1ncc(-c2ccc(Nc3nc4c(c(N(C)C)n3)SC3(CCC3)C4)cn2)o1` [Example 2] the same measures were 520 nM and 51.
As to `COc1cc(Nc2nc3c(c(N4CCCCC4)n2)SC2(CCOCC2)C3)ccc1-n1cnc(C)c1` [Example 16], the IC50 amounted to 820 nM and the “Ratio Aβ(total)/Aβ42” value is on record as over 36.
For `COc1cc(Nc2nc3c(c(N4CCCCC4)n2)SC2(CCC2)C3)ccc1-n1cnc(C)c1` [Example 3] the same measures were 90 nM and 85.
For `Cc1cn(-c2ccc(Nc3nc4c(c(N(C)C)n3)SC3(CCC3)C4)cc2C#N)cn1` [Example 19] the same measures were 370 nM and 55.
